The structures appear in SMILES notation.

The first assay deals with human σ1 receptor (Homo sapiens, UniProt Q99720). The experiment in a line: biochemical. Particulars: combined class from Ki at human σ1 receptor (A1) and Ki at human μ-opioid receptor (A2); radioligand binding. Also noted: μ and σ1 dual binding: scale not given here. As to the method: Biological Activity Pharmacological Study Human σ1 Receptor Radioligand Assay
Chain of human σ1 receptor (Q99720 whole entry): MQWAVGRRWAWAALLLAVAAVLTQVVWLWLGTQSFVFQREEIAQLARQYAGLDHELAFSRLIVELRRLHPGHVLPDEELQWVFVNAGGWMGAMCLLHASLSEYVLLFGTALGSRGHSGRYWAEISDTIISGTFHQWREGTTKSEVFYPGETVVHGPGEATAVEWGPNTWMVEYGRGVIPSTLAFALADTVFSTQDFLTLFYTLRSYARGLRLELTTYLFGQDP
The assay was carried out with 7 μg of membrane suspension, 5 nM of [^3H](+)-pentazocine in either absence or presence of either buffer or 10 μM Haloperidol for total and non-specific binding, respectively. Binding buffer contained Tris-HCl 50 mM at pH 8. Plates were incubated at 37° C. for 120 minutes. After the incubation period, the reaction mix was then transferred to MultiScreen HTS, FC plates (Millipore), filtered and plates were washed 3 times with ice-cold 10 mM Tris-HCL (pH7.4). Filters were dried and counted at approximately 40% efficiency in a MicroBeta scintillation counter (Perkin-Elmer) using EcoScint liquid scintillation cocktail
Regarding `CC1CN(C(=O)c2ccc(Cl)cn2)CC2(CCN(CCc3csc(N)n3)CC2)O1.Cl` (centres unmarked) [Example 102, (9-(2-(2-aminothiazol-4-yl)ethyl)-2-methyl-1-oxa-4,9-diazaspiro[5.5]undecan-4-yl)(5-chloropyridin-2-yl)methanone hydrochloride], the “μ and σ1 dual binding” value is “++”. Still for that read-out and setting: the value for `CC1CN(C(=O)c2ccccc2)CC2(CCN(CCc3csc(N)n3)CC2)O1.Cl` (centres unmarked) [Example 103, (9-(2-(2-aminothiazol-4-yl)ethyl)-2-methyl-1-oxa-4,9-diazaspiro[5.5]undecan-4-yl)(phenyl)methanone] was “++”. As to `CC1CN(C(=O)c2ccccc2)CC2(CCN(CCc3cccc(NC(N)=O)c3)CC2)O1.Cl` (centres unmarked) [Example 109, 1-(3-(2-(4-benzoyl-2-methyl-1-oxa-4,9-diazaspiro[5.5]undecan-9-yl)ethyl)phenyl)urea hydrochloride], the “μ and σ1 dual binding” value is given as “++”. On the same count and under the same terms, with `CC1CN(C(=O)c2ccccc2)CC2(CCN(CCc3ccccc3NC(N)=O)CC2)O1` (centres unmarked) [Example 110, 1-(2-(2-(4-benzoyl-2-methyl-1-oxa-4,9-diazaspiro[5.5]undecan-9-yl)ethyl)phenyl)urea] the entry was “++”; with `CC(=O)Nc1cccc(CCN2CCC3(CC2)CN(C(=O)c2ccccc2)CCO3)c1` [Example 111, N-(3-(2-(4-benzoyl-1-oxa-4,9-diazaspiro[5.5]undecan-9-yl)ethyl)phenyl)acetamide], “++”; with `CC(=O)Nc1ccccc1CCN1CCC2(CC1)CN(C(=O)c1ccccc1)CC(C)O2.Cl` (centres unmarked) [Example 112, N-(2-(2-(4-benzoyl-2-methyl-1-oxa-4,9-diazaspiro[5.5]undecan-9-yl)ethyl)phenyl)acetamide hydrochloride], “++”. Same read-out and setting: the value for `CS(=O)(=O)Nc1cccc(CCN2CCC3(CC2)CN(C(=O)c2ccccc2)CCO3)c1` [Example 114, N-(3-(2-(4-benzoyl-1-oxa-4,9-diazaspiro[5.5]undecan-9-yl)ethyl)phenyl)methanesulfonamide] was “++”; that for `CN(C)C(=O)N1CCOC2(CCN(CCc3ccccc3)CC2)C1` [Example 117, N,N-dimethyl-9-phenethyl-1-oxa-4,9-diazaspiro[5.5]undecane-4-carboxamide] was “++”. On to `CN(C(=O)N1CCOC2(CCN(CCc3ccccc3)CC2)C1)c1ccccn1.Cl` [Example 119, N-methyl-9-phenethyl-N-(pyridin-2-yl)-1-oxa-4,9-diazaspiro[5.5]undecane-4-carboxamide hydrochloride], for which the “μ and σ1 dual binding” value is reported as “++”. Still for that read-out and setting: the value for `C[C@@H]1CN(C(=O)c2ccccn2)CC2(CCN(CCc3ccccc3)CC2)O1.Cl` [Example 124, (R)-(2-methyl-9-phenethyl-1-oxa-4,9-diazaspiro[5.5]undecan-4-yl)(pyridin-2-yl)methanone hydrochloride] was “++”; that for `COc1cccnc1CCN1CCC2(CC1)CN(C(=O)c1ccccc1F)CC1(CC1)O2` [Example 130, 12-[(2-fluorophenyl)carbonyl]-8-(2-(3-methoxypyridin-2-yl)ethyl)-4-oxa-8,12-diazadispiro[2.1.5.3]tridecane] was “++”; that for `N#Cc1ccccc1C(=O)N1CC2(CCN(CCc3ncccc3F)CC2)OC2(CC2)C1` [Example 135, 2-(8-(2-(3-fluoropyridin-2-yl)ethyl)-4-oxa-8,12-diazadispiro[2.1.5.3]tridecane-12-carbonyl)benzonitrile] was “++”. On the same count and under the same terms, with `C[C@@H]1CN(C(=O)c2ccccc2F)CC2(CCN(CCc3ncccc3F)CC2)O1` [Example 143, (R)-(2-fluorophenyl)(9-(2-(3-fluoropyridin-2-yl)ethyl)-2-methyl-1-oxa-4,9-diazaspiro[5.5]undecan-4-yl)methanone] the entry was “++”.

As to `C[C@H]1CN(C(=O)c2ccccc2F)CC2(CCN(CCc3ncccc3F)CC2)O1` [Example 144, (S)-(2-fluorophenyl)(9-(2-(3-fluoropyridin-2-yl)ethyl)-2-methyl-1-oxa-4,9-diazaspiro[5.5]undecan-4-yl)methanone], the “μ and σ1 dual binding” value is recorded as “++”.

As to `C[C@@H]1CN(C(=O)c2c(F)cccc2F)CC2(CCN(CCc3ncccc3F)CC2)O1` [Example 145, (R)-(2,6-difluorophenyl)(9-(2-(3-fluoropyridin-2-yl)ethyl)-2-methyl-1-oxa-4,9-diazaspiro[5.5]undecan-4-yl)methanone], the “μ and σ1 dual binding” value is “++”. On the same count and under the same terms, with `C[C@H]1CN(C(=O)c2c(F)cccc2F)CC2(CCN(CCc3ncccc3F)CC2)O1` [Example 146, (S)-(2,6-difluorophenyl)(9-(2-(3-fluoropyridin-2-yl)ethyl)-2-methyl-1-oxa-4,9-diazaspiro[5.5]undecan-4-yl)methanone] the entry was “++”.

The assay is the same for the next values; noted with them: combined class from Ki at human σ1 receptor (A1) and Ki at human μ-opioid receptor (A2); radioligand binding; read-out: μ and σ1 dual binding.
`O=C(c1ccccc1)N1CCOC2(CCN(CCc3cccc([N+](=O)[O-])c3)CC2)C1` [Example 97, (9-(3-nitrophenethyl)-1-oxa-4,9-diazaspiro[5.5]undecan-4-yl)(phenyl)methanone]: the Ki was above 500 nM. Regarding `Nc1cccc(CCN2CCC3(CC2)CN(C(=O)c2ccccc2)CCO3)c1` [Example 104, (9-(3-aminophenethyl)-1-oxa-4,9-diazaspiro[5.5]undecan-4-yl)(phenyl)methanone], the Ki is above 500 nM. On the same count and under the same terms, with `O=C(Nc1cccnc1)N1CCOC2(CCN(CCc3ccccc3)CC2)C1` [Example 121, 9-phenethyl-N-(pyridin-3-yl)-1-oxa-4,9-diazaspiro[5.5]undecane-4-carboxamide] the figure was above 500 nM. Same read-out and setting: with `COC(=O)CCN1CCC2(CC1)CN(C(=O)c1c(F)cccc1F)CC1(CC1)O2` [Example 140, methyl 3-(12-(2,6-difluorobenzoyl)-4-oxa-8,12-diazadispiro[2.1.5.3]tridecan-8-yl)propanoate] the figure was above 500 nM; with `CC1CN(C(=O)c2cccc(F)c2F)CC2(CCN(CCc3ncccc3F)CC2)O1` (centres unmarked) [Example 147, (2,3-difluorophenyl)(9-(2-(3-fluoropyridin-2-yl)ethyl)-2-methyl-1-oxa-4,9-diazaspiro[5.5]undecan-4-yl)methanone], above 500 nM; with `CC1CN(C(=O)c2ccc(F)cc2F)CC2(CCN(CCc3ncccc3F)CC2)O1` (centres unmarked) [Example 148, (2,4-difluorophenyl)(9-(2-(3-fluoropyridin-2-yl)ethyl)-2-methyl-1-oxa-4,9-diazaspiro[5.5]undecan-4-yl)methanone], above 500 nM. On the same count and under the same terms, the value for `CC1CN(C(=O)c2cccc(F)c2)CC2(CCN(CCc3ncccc3F)CC2)O1` (centres unmarked) [Example 151, (3-fluorophenyl)(9-(2-(3-fluoropyridin-2-yl)ethyl)-2-methyl-1-oxa-4,9-diazaspiro[5.5]undecan-4-yl)methanone] was above 500 nM.

Source of the values: patent publication US10065971B2 (priority 2014, dated 2018).
